These are literature values, as cited in article PMC4931242, “Enhancing digestibility and ethanol yield of Populus wood via expression of an engineered monolignol 4-O-methyltransferase” (Nature Communications, 2016).

Molecules are shown by their SMILES.

This data set has as its target T1, MOMT4 (engineered monolignol 4-O-methyltransferase) (Clarkia breweri, UniProt O04385, T133L/E165I/H169F/F175I).
T1 construct: gene IEMT1; engineered quadruple active-site variant of isoeugenol 4-O-methyltransferase; purified enzyme
The experiment in a line: 4-O-methylation kinetics. Type of data set: biochemical. To be noted: co-substrate SAM; s.d., n=3.

T1 sequence (O04385 whole entry T133L/E165I/H169F/F175I): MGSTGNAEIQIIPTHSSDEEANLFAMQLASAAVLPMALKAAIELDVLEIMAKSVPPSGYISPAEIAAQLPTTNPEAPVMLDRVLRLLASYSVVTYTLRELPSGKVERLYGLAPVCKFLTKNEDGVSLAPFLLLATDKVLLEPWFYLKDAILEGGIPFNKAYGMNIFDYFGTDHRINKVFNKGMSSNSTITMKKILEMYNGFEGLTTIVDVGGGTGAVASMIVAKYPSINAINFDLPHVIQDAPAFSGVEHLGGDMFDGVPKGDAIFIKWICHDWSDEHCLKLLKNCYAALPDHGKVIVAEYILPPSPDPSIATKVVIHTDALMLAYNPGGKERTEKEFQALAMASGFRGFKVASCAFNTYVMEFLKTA

For the compound `COc1cc(/C=C/CO)cc(OC)c1O` [sinapyl alcohol], the Km (in general, the concentration of substrate that gives half-maximal velocity) was 68.1 ± 11.1 µM.
On to `COc1cc(/C=C/CO)ccc1O` [coniferyl alcohol], for which the Michaelis constant (Km) is 193 ± 24.5 µM.
